From patent US4141986A, “Antibiotics 890A2 and 890A5” (Merck & Co., Inc., priority 1977, dated 1979) come the findings set out here.

Data set [1] is described as follows: Stability during desalting on Sephadex G-10. In kind it is physicochemical. To be noted: pooled fractions at pH 4.1; A308/A260 ratio of 0.76. The method, then:
Fractions 112 through 130 containing 890A2, are concentrated under reduced pressure to 5.5 ml. and the concentrate is applied to a column (2.15 × 70 cm.) of Sephadex G-10, and eluted with deionized water at a flow rate of 1 ml. per minute. Fractions of 2.85 ml. each are collected. The bioactivity as determined by assay against Salmonella gallinarum MB1287 appears in fractions 60 through 98. Fractions 78 through 90 have the highest A308 /A260 ratios, and these are pooled for lyophilization. The pH of the pooled fractions is 4.1, and is adjusted to 7.8 by addition of 8 μl of 1M ammonia.

Data set [2] deals with Vibrio percolans ATCC 8461. Put plainly: Bioassay I, agar plate disc-diffusion potency per HAEA308 unit. In kind it is cell-based. To be noted: Vibrio percolans ATCC 8461, Bioassay I. On the procedure:
An agar plate disc-diffusion method is employed using either Vibrio percolans ATCC 8461 or Salmonella gallinarum MB-1287 as tester organism. A purified sample of antibiotic 890A1 is used as standard. Antibiotic 890A1 is prepared according to the procedure set forth in Example 5.
Plates containing Vibrio percolans ATCC 8461 are prepared as follows:
A lyophilized culture of Vibrio percolans ATCC 8461 is suspended in 15 ml. of a sterilized medium containing 8 g./liter of Difco Nutrient Broth and 2 g./liter of yeast extract in distilled water "nutrient broth-yeast extract" (herein after designated NBYE). The culture is incubated overnight on a rotary shaker at 28° C. […]
Filter paper discs of one-half inch diameter are dipped into the solution to be assayed, and are placed on the agar. […] The diameter of the zone of inhibition is measured after appropriate incubation (9-18 hours at 37° C. for Salmonella gallinarum MB-1287 or 12-24 hours at 25° C. for Vibrio percolans ATCC 8461.) If necessary, dilutions of the solutions to be assayed are made in 0.05M potassium phosphate buffer, pH 7.4 "potassium phosphate buffer" (hereinafter referred to as KPB), or in deionized water.
Calculations of potencies proceed as follows: a slope is determined by measuring the zone diameters of a solution of antibiotic 890A2 or 890A5 and of a four-fold dilution (in KPB) of this solution. […]

Molecules are shown by their SMILES.

Consider `CC(=O)NC=CSC1=C(C(=O)O)N2C(=O)C(C(C)O)C2C1` (centres unmarked) [Antibiotic 890A2], for which the “stability during Sephadex G-10 desalting” value in data set [1] is listed as “substantial degradation”.

Turning to `CC(=O)NC=CSC1=C(C(=O)O)N2C(=O)C(C(C)O)C2C1` (centres unmarked) [Antibiotic 890A5], the “antibiotic potency (ratio of bioactivity to HAEA308)” value in data set [2] was found to be 12 units per HAEA308 unit.
